The NIST ThermoML archive (doi:10.1021/je300044x)
Numbers after ± are expanded uncertainties.

What was measured:
[1] = Molar enthalpy of transition or fusion; details: DSC

Structure (SMILES)	Normal melting temperature (Metastable crystal, visual observation)	Normal melting temperature (Crystal 1, DTA)	Triple point temperature (Crystal 2, DTA)	Molar enthalpy of transition or fusion ([1]; Crystal 1)	Molar enthalpy of transition or fusion ([1]; Crystal 2)
CCn1cc[n+](C)c1.O=S(=O)([N-]S(=O)(=O)C(F)(F)F)C(F)(F)F	-16.24 ± 2 °C	–	–	–	–
NC(=O)c1cnccn1 [pyrazinecarboxamide]	–	188.27 ± 1.1 °C	420.36 ± 1.1 K	6.72 ± 0.194 kcal/mol	0.39 ± 0.0359 kcal/mol
